Key:
[1] = hygroscopicity by symmetric vapor sorption analyzer; assay type: physicochemical; settings: 25° C.
Description: A large quantity of Form A (wet cake of N-(3H-imidazo[4,5-B]pyridin-2-ylmethyl)-2-fluoro-4-methyl-3-oxo-4-aza-5-alpha-androst-1-en-17-beta-carboxamide) was generated by dissolving the crystalline free base (Form E) in pH 3—potassium biphthalate and sulfuric acid mixture—for 10 days at RT. The slurry was filtered and washed with copious amount of D.I. water to wash off residual ions. The wet cake (Form A) was analyzed by x-ray and was then vacuum dried at 37° C. for 3 days. Upon drying, a change in x-ray pattern was observed. The dry cake (Form B) was then analyzed by differential scanning calorimetry (DSC) and thermogravimetry (TG). The TG analysis was performed under a nitrogen flow at a heating rate of 10° C./min, and the DSC was performed under nitrogen flow at a heating rate of 10° C./min in a covered pan. The hygroscopicity of Form B was determined using a symmetric vapor sorption analyzer. The experiment includes an initial drying step at 60° C., followed by measurements of water sorption at 25° C. for percent RH values from 5% to 95% in 10% intervals. The data are reported as percent weight gain as a function of percent RH. Form B was also analyzed for weight percent by liquid chromatography (LCWP) by high performance liquid chromatography (HPLC).

[2] = solid-state form interconversion (variable temperature X-ray, drying); assay type: physicochemical; settings: ambient conditions or drying
Source text: FIG. 5 is an overlay of variable temperature X-ray powder diffraction patterns showing the appearance of the non-isolatable anhydrous Form C of the 2:1 compound I:biphthalate salt.
FIG. 6 is an overlay of X-ray powder diffraction patterns comparing Form B, the dihydrate 2:1 compound I:biphthalate salt, with Form D, the tetrahydrate 2:1 compound I:biphthalate salt. When the wet cake of the 2:1 compound I:biphthalate salt, was air dried at room temperature, Form D was obtained at both T=5 days and T=8-days. The various methods of drying possible, in addition to the size of the sample to be dried, can vary the time needed for drying. The dryness was determined by a stable TG curve showing about a 6% weight loss. Here, the method was to dry in open air, and at both time points (T=5 and T=8 days), the weight loss by TGA was equal to about 6%.
In another embodiment of the invention, anhydrous 2:1 compound I:biphthalate material was non-isolatable at ambient condition, but the hygroscopicity study indicated the presence of one or more hydrated states from 15% to 95% RH. The weight percent of water was 3.4% at 15% RH with a gradual increase to 6.1% at 95%. […] Form D is suspected to be a tetrahydrate biphthalate salt based on its TG data in addition to the hygroscopicity data of Form B. Upon further drying (15 days), the TG and XRD data conform to that of Form B, the dihydrate 2:1 compound I:biphthalate salt.

Compound	weight percent of water ([1]; at 15% RH) [%]	weight percent of water ([1]; at 95% RH) [%]	solid-state form stability / conversion [2]
CN1C(=O)C(F)=C[C@]2(C)C3CC[C@]4(C)[C@@H](C(=O)NCc5nc6cccnc6[nH]5)CC[C@H]4C3CC[C@@H]12 (some centres unmarked) [Form B]	3.4	6.1	the most stable form
CN1C(=O)C(F)=C[C@]2(C)C3CC[C@]4(C)[C@@H](C(=O)NCc5nc6cccnc6[nH]5)CC[C@H]4C3CC[C@@H]12 (some centres unmarked) [Form C]			readily hydrates to Form B in ambient conditions
CN1C(=O)C(F)=C[C@]2(C)C3CC[C@]4(C)[C@@H](C(=O)NCc5nc6cccnc6[nH]5)CC[C@H]4C3CC[C@@H]12 (some centres unmarked) [Form D]			converts to Form B upon further drying

Reference: US20090048283A1, “Salt of an androgen receptor modulator” (priority 2007, published 2009)
